According to patent publication US11384385B2, “Method for predicting therapeutic effects of irinotecan, and kit for same” (Yamaguchi University, priority 2017, dated 2022):
Where two headings read alike, the source gives them in different places.

Experiments:
[1] = system: colorectal cancer (stage IV); test: Therapeutic effect of irinotecan on cancer evaluated by RECIST (CR and PR = therapeutic effect), by rs1980576 genotype; format: in vivo, human; settings: for therapeutic effect observed (CR+PR): rs1980576 wild-type homozygote (A/A)
Procedure: Analysis objects were 140 cases among 155 Japanese colorectal cancer (stage IV) cases who were administered with irinotecan excluding cases who were administered with a reduced amount of irinotecan, UGT1A1*6 (homo), UGT1A1*28 (homo), and their compound heterogeneous cases and determined for the therapeutic effect and 66 subpopulation cases (FOLFIRI cases with a unified regimen) among the 140 cases. FOLFIRI is one of standard treatments for colorectal cancer and using irinotecan simultaneous with treatment with a combination of fluorouracil and 1-leucovorin. The 140 cases were Japanese colorectal cancer patients treated with a regimen including irinotecan. The regimen in this Example includes combination therapy, in addition to irinotecan, with FOLFIRI using fluorouracil and 1-leucovorin, […] using capecitabine, IRIS using S-1, or an anti-EGFR antibody agent ([…], Cetuximab, or Panitumumab). Comprehensive analysis (WES analysis) of the prepared genome DNA was performed by the same method as described in WO2016/132736 (PCT/JP2016/000793). That is, three types of cases: cases (n=5) as a control group in which UGT1A genetic polymorphisms (seven positions of UGT1A1*6, *27, and *28, UGT1A7 (387T>G and 622T>C), UGT1A9*1b, and UGT1A1*60) were all homozygotes being low in side effect risk and no side effect from irinotecan were observed; cases (n=5) as a case group in which although the UGT1A genetic polymorphisms were the same as those in the control group, side effects (Grade 3, entire course) were observed; and cases (n=5) in which any of the UGT1A genetic polymorphisms was a heterozygote and a side effect was observed from the first administration of irinotecan (Grade 4), were established, and the case and control groups were analyzed. […] The genetic polymorphisms and the side effect frequency and the response rates were statistically analyzed using a Cochran-Armitage trend test. […] Accordingly, 11 single nucleotide polymorphisms in total: the above-mentioned single nucleotide polymorphisms a) to f) and single nucleotide polymorphisms g) UGT1A1*6, h) UGT1A1*60, i) UGT1A7 (387T>G), j) UGT1A7 (622T>C), and k) UGT1A9*1b known to be involved in side effects from irinotecan, were analyzed for a relationship with the therapeutic effects of irinotecan on cancer. […] CR and PR were determined to have a therapeutic effect; and SD and PD were determined to have no therapeutic effect. […] FIGS. 1 and 2 show the analysis results of 140 cases determined for therapeutic effects, and FIGS. 3 and 4 show the analysis results of 66 subpopulation cases among the 140 cases. […] In addition, in FIGS. 1 to 4, “Odds ratio” is calculated as an odds ratio of the therapeutic effects (efficacy) of irinotecan on cancer in a wild-type homozygote or a mutant-type homozygote by Fisher's exact test.

[2] = FIG. 5, Table 2 of WO2016/132736, cited from earlier work
cancer = settings: general response rate; cited from earlier work
[3] = rs1980576 mutant-type homozygote (G/G)

## CCc1c2c(nc3ccc(OC(=O)N4CCC(N5CCCCC5)CC4)cc13)-c1cc3c(c(=O)n1C2)COC(=O)[C@]3(O)CC [irinotecan, (S)-4,11-diethyl-3,4,12,14-tetrahydro-4-hydroxy-3,14-dioxo-1H-pyrano[3′,4′:6,7]indolizino[1,2-b]quinolin-9-yl ester, CPT-11,1,4′-bipiperidine-1′-carboxylic acid]
[1]; rs1980576 heterozygote (A/G)
  possibility of a therapeutic effect of irinotecan on cancer: high
[1]; [3]
  therapeutic effect: low
[1]; 66 FOLFIRI cases only (FIG. 3)
  therapeutic effect observed (CR+PR): 43%
[1]; 140 Japanese colorectal cancer cases, regimen including irinotecan (FIG. 1)
  therapeutic effect observed (CR+PR): 38%
[2]; rs1980576 heterozygote (A/G)
  risk of side effects: low
[2]; [3]
  risk of side effects: high
[2]; rs1980576 wild-type homozygote (A/A)
  risk of side effects: low
cancer
  response rate of irinotecan generally: about 32%
